Measurements reported in US20130253011A1, “INSECTICIDAL COMPOUNDS” (SYNGENTA PARTICIPATIONS AG, priority 2010, published 2013).

- melting point: 80 to 82 °C
SMILES: COc1c(-c2cn(-c3c(C(F)(F)F)c(C(F)(F)C(F)(F)F)nn3C)nn2)cccc1N(C)C(=O)c1c(F)cc(F)cc1F
